Measurements from patent US20200163995A1, “PHAR[…] AND USES THEREOF” (Johnpro Biotech Inc., priority 2017, published 2020).
Where two headings read alike, the source gives them in different places.

Experiments:
[1] = system: WiDr cells; assay: WiDr xenograft in SCID mice, tumor volume; format: in vivo; settings: SCID mice with WiDr tumors
Experimental: 2×10^6 WiDr cells were subcutaneously implanted on the back of 9-weeks-old SCID mice. When tumors reached a volume of 100-200 mm^3, the mice were intraperitoneally administered with 200 mg/kg sodium butyrate for 5 consecutive days. Then, the mice were assigned into five groups: (1) control group, in which the mice were orally administrated with PBS every day, and intraperitoneally administrated with PBS every 4 days; (2) NaB group, in which the mice were orally administrated with 5 g/kg sodium butyrate every day, and intraperitoneally administrated with PBS every 4 days; (3) NK92MI group, in which the mice were orally administrated with PBS every day, and intraperitoneally administrated with NK92MI cells every 4 days; (4) NK92MI-CEA group, in which the mice were orally administrated with PBS every day, and intraperitoneally administration with NK92MI-CEA cells every 4 days; and (5) NK92MI-CEA+NaB group, in which the mice were orally administration with 5 g/kg sodium butyrate every day, and intraperitoneally administration with NK92MI-CEA every 4 days. Tumor volume of the mice was measured every 2-3 days, and tumor volumes on were calculated using the formula: length×(width)^2÷2 (*p<0.05). […]
The in vivo anti-tumor activity of NK92MI-CEA cells was evaluated in this example. […]

[2] = system: HCT116 cells; assay: 5-fluorouracil IC50 in HCT116 cells alone or co-treated with sodium butyrate or 5-azacytidine; format: cell-based, Human; settings: for induction of drug resistance (5-fluorouracil) in cancer cells: HCT116 and WiDr cells, co-treatment with 5-fluorouracil 72 hours, sodium butyrate 0.1 mM, 5-azacytidine 1 μM
Experimental: (§1) Human colon cancer cell line LS174T (ATCC® CL-188™) and WiDr cells (ATCC CCL-218™) were maintained in alpha modification of Eagle's minimum essential medium (α-MEM) containing 1.5 g/L sodium bicarbonate and 10% fetal bovine serum (FBS). HCT116 cells (ATCC® CCL-247™) were cultured in McCoy's 5A medium containing 1.5 g/L sodium bicarbonate, 4.5 g/L glucose, 10 mM HEPES, 1.0 mM sodium pyruvate and 10% FBS. The NK92MI and NK92MI-CEA cells were cultured in α-MEM supplemented with 1.5 g/L sodium bicarbonate, 0.2 mM inositol, 0.02 mM folic acid, 0.01 mM 2-mercaptoethanol, 10% FBS and 12.5% horse serum. All cells were incubated at 37° C. in a humidified incubator with 5% CO2.
(§2) HCT116 and WiDr cells were co-treated with sodium butyrate (0.1 mM) or 5-azacytidine (1 μM) and different concentration of 5-fluorouracil (1.2, 2.4, 4.8, 9.6, and 19.2 μM) for 72 hours.

[3] = system: cancer cells; assay: Resistance of drug-treated cancer cells to chemotherapy and radiation therapy (data not shown); format: cell-based
Excerpt: (§3) In this example, cancer cells were first treated with various types of anti-cancer drugs, before been subject to the treatment of NK92MI-CEA cells.

[4] = system: CEA expression on cancer cells; assay: Determination of CEA expression on cancer cells by flow cytometry after drug treatment; format: cell-based, Human; settings: data not shown
Experimental: The expression level of CEA on cancer cells were determined by flow cytometry. Cancer cells were stained with the human CEA-specific antibody followed by the analysis of flow cytometry. The fluorescence intensities of at least 10^5 cells were recorded and analyzed by software. Geometric mean was chosen as mean fluorescence intensity (MFI).
as §3

[5] = system: HCT116 cells
Experimental: In this experiment, the cancer cells (i.e., HCT116 or WiDr cells) and the NK cells (i.e., NK92MI or NK92MI-CEA cells) respectively served as the target and effector cells. In brief, the target cells were co-incubated with the effector cells at various effector/target ratios (E/T), including 10:1, 5:1, 1:1, and 0.5:1, in a round-bottom 96-well culture plate. After incubating at 37° C. for 24 hours, 50 μl of the supernatant was isolated and mixed with 50 μl of CYTOTOX 96® Reagent in a flat-bottom 96-well enzymatic assay plate. The mixture was incubated at room temperature for 30 minutes followed by adding 50 μl stop solution (H2SO4) to stop the reaction. The absorbance was measured at 490 nm. The percentage of cytotoxicity for each effector:target cell ratio was calculated by the equation of,
(Experimental−culture medium background)−(Effector cell spontaneous release−culture medium background)−(Target spontaneous release−culture medium background)/(Target maximum release−volume correction control−Target spontaneous release−culture medium background)×100.

[6] = system: serum circulating CEA (cCEA); assay: Serum circulating CEA (ELISA) in WiDr tumor-bearing SCID mice; format: in vivo; settings: FIG. 4C, control group 520 pg/ml
[7] = system: WiDr cells; assay: 5-fluorouracil IC50 in WiDr cells alone or co-treated with sodium butyrate or 5-azacytidine; format: cell-based; settings: Homo sapiens, 72 hours, co-treatment sodium butyrate 0.1 mM or 5-azacytidine 1 μM, three independent experiments, read-out: IC50 of 5-fluorouracil (μM) Mean ± SD
Experimental: as §1, §2

Compound | tumor growth (FIG. 4A) ([1]; NK cells i.p. every 4 days, sodium butyrate 5 g/kg orally every day) | tumour growth / tumour size (FIG. 4B) ([1]; compared to control group) | induction of drug resistance (5-fluorouracil) in cancer cells [2] | resistance of cancer cells to chemotherapy and radiation therapy [3] | CEA expression on cancer cells [4] | enhancement of cytotoxic effect of NK92MI-CEA cells ([5]; HCT116 cells treated with agent, E/T ratio 10:1, 5:1, 1:1 or 0.5:1, versus control and untreated groups, FIGS. 3A, 3B) | concentration of cCEA in the serum of mice [6] | IC50 ([2]; Homo sapiens, HCT-116, HCT116 cells, 72 hours, co-treatment sodium butyrate 0.1 mM or 5-azacytidine 1 μM, three independent experiments, read-out: IC50 of 5-fluorouracil (μM) Mean ± SD) | IC50 [7] | enhancement of cytotoxic effect of NK92MI-CEA cells [5]
CCCC(=O)[O-].[Na+] [sodium butyrate] | obviously enhanced the anti-tumor effect of NK92MI-CEA cells | did not obviously inhibit tumour growth | induced drug resistance in cancer cells | rendered the cancer cells resistant to the chemotherapy and radiation therapy | significantly increased CEA expression | significantly enhanced cytotoxic effect | 990 pg/mL | – | – | –
O=c1[nH]cc(F)c(=O)[nH]1 [5-fluorouracil] | – | – | – | – | – | – | – | 4.39 ± 3.1 µM | 4.67 ± 0.55 µM | –
Nc1ncn([C@@H]2O[C@H](CO)[C@@H](O)[C@H]2O)c(=O)n1 [5-azacytidine] | – | – | induced drug resistance in cancer cells | rendered the cancer cells resistant to the chemotherapy and radiation therapy | significantly increased CEA expression | – | – | – | – | significantly enhanced cytotoxic effect
